Laboratory results as given in patent publication US20120322751A1 (priority 2010, published 2012).
In brackets after ≈: the same amount, converted by molar mass.

Legend:
[1] = system: Normal human fibroblasts derived from foreskin; test: Collagen synthesis and total protein synthesis by human fibroblasts in vitro; type: cell-based
Description: a) Neonatal human fibroblast culture was established from a sample of neonatal human foreskin obtained by circumcision. After removal of subcutaneous tissue by dissection, the sample was desegregated by trypsinization with 0.25% trypsin and 1 mM EDTA solution (Gibco). Released cells were propagated in 100 mm plastic tissue culture dishes (Corning) in incubator at 37° C. saturated with 5% CO2. The medium, changed twice weekly, was a mixture of 0.2 mg/ml calcium, 4500 mg/l glucose in Dulbecco's modified Eagle's medium (DMEM, Gibco) supplemented with 10% fetal bovine serum FBS (Gemini-Bio-Products), 0.292 mg/ml L-glutamine (Gibco) and antibiotic-antimycotic solution containing 100 U penicillin-G/ml, 100 mcg/ml streptomycin and 0.25 mcg/ml fungizione in normal saline (Gemini-Bio-Products). Primary culture cells were trypsinized. To achieve enough cells of the same passage, the cells were replanted two times during two weeks and transplanted in bigger dishes before incubation started. At density 5×10^5 NHK 98-009 of fibroblasts of passage 4 was transplanted in Petri dishes in DMEM medium. When cells achieved ca 50% of confluence they were treated with solutions of BAC-3 with 0; 1; 10; 100; 250; and 500 μg/ml and 50 μg/ml of ascorbic acid (Sigma). All solutions were filtrated through 0.2 μm filters (Fisher). The media with or without BAC-3 were changed once after two days. 100 μg of ascorbic acid were added each day in media until achieving final concentration of 50 μg/ml of ascorbic acid in each of Petri dishes. […]
Normal human fibroblasts derived from foreskin were cultured in T-25 flasks and were treated with BAC-3 at concentrations of 1 μg/ml, 10 μg/ml, and 100 μg/ml in the way previously described. […] One half of the sonicate was hydrolyzed in 6N HCl; hydroxyproline was measured in the hydrolisate to determine collagen synthesis. […] Total collagen per flask was determined multiplying the hydroxiproline value by 7.8. […]

[2] = system: DNCB induced delayed type hypersensitivity reactions; test: Delayed type hypersensitivity (DTH) in DNCB sensitised nude guinea pigs; type: in vivo, nude guinea pig; details: topical twice daily during 7 days; by day 7; preliminary data
Description: The nude guinea pig is used as test animal because of different animal skins, nude guinea pig skin is claimed to be the one closest resembling human skin. […] In DNCB sensitised guinea pigs delayed type hypersensitivity reactions were induced with patches soaked with 0.25% (w/v) DNCB in ethanol/propylene glycol kept on the animals back for 24 hours. The test sites were treated twice daily during 7 days with: Dovonex (commercially available ointment with calcipotriene; 1% (w/w) BAC-3 in US petrolatum. Locobasis (commercially available ointment, identical as carrier for steroids; 1% (w/w) non purified BAC-3 (86%) in US petrolatum; US petrolatum; Preferid (commercially available steroid).

[3] = system: human mononuclear cells (MNC); test: cells; type: cell-based
[4] = system: TPA/pyr induced acute ear inflammation; test: TPA/pyr induced acute ear inflammation; type: in vivo, Swiss-Webster mice; details: topical 0.1% solution
From the text: The inflammatory responses occur in three distinct phases, each apparently mediated by different mechanisms: an acute one characterized by local vasodilatation and increased capillary permeability, a subacute phase characterized by infiltration of leukocyte and phagocytic cells and a chronic proliferative phase, in which tissue degeneration and fibrosis occur. Acute inflammation generated by TPA (12-o-tetradecanoylforbolacetat/pyridine) induces an acute inflammatory reaction consisting of erythema, edema and polymorphonuclear leukocyte (PMN) infiltration The mechanism of anti-inflammatory mode of action of di-rhamnolipid BAC-3 is unknown. So far, it has been shown that Pseudomonas di-rhamnolipids stimulate, both chemotaxis and chemokinesis of leukocytes). In vitro studies examining the effects of pulmonary surfactant containing hydrophobic apopoproteins on human neutrophils have the important role of the protein component of the surfactant in enhancing the leukocyte chemotaxis, opsonizing bacteria, enhancing macrophage function, and stimulating antibody production. […] Correspondingly, it has been recognized that glycolipids (biosurfactants) through their virtue of hidrophilic head bind to proteins, i.e. receptors on cell membranes. […] It has been proposed that rhamnolipid increased the early recruitment of inflammatory cells to the site of inflammation without triggering a persistent, abnormal accumulation of neutrophils.
In the experiment it was proven that rhamnolipd (BAC-3) at concentration (1 mg/ml^−1, 0.1% w/v) was effective as a topical therapeutic anti-inflammatory agent in the TPA/pyr model of acute dermal ear inflammation in female Swiss-Webster mice over a time-course of 24 hours. The time of maximal reduction of inflammation was dependent on the time of treatment, with respect to induction.
Post treatment with BAC-3 two hour after inflammation reversed established inflammation with maximal effect after 11 hours. (32% lower inflammation in comparison with control). […]

[5] = Preservation of structure during 10 years after production; type: physicochemical; details: under nitrogen N2 in glass bottles at room temperature
From the text: On the figure has been shown the purity of the rhamnolipid BAC-3 (FIG. 10) and mass spectrum (FIG. 11) ten years after production. The production of the rhamnolipid BAC-3 purity>98.5 is very expensive procedure. Therefore one of the most important task of rhamnolipid BAC-3 production is achieving clinically acceptable purity without using HPLC-MS equipment, except for control purposes of the purity and mass spectrum.

[6] = target: T1, Guinea pig lung LTC4 synthase (Cavia porcellus, UniProt A6XA80); test: Leukotriene C4 synthase inhibition (EIA); type: biochemical; details: highest concentration (1,000 μM/ml); solvent DMSO
T1 construct: Guinea pig lung LTC4 synthase was used; from tissue; host or cells: guinea pig lung
T1 sequence (A6XA80 1-150): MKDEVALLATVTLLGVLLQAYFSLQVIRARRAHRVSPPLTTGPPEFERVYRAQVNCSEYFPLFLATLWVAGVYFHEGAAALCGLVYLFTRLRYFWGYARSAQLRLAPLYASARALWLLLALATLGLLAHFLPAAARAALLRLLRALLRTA
Description: Leukotriene C4 (LTC4) synthase is crucial in the formation of LTC4 from LTA4. Taken together with other assays for enzymes involved in the lipoxygenase pathway (e.g. 5-lipoxygenase, LTA4 hydrolase), a locus of action can be established, mechanism of agents' activities which inhibit the formation of the leukotrienes.
Guinea pig lung LTC4 synthase was used. Test compound and/or vehicle was preincubated with 180 μg/ml enzyme dissolved in phosphate buffer pH 7.8 for 15 minutes at 37° C. The reaction was initiated by addition of 2.5 μg/ml LTA4 methyl ester for another 30 minute incubation period and terminated by further addition of ice-cold methanol. Determination of the amount of LTC4 formed was read spectrophotometrically by enzyme immunoassay kit (EIA). Compounds was tested at the concentrations of 1,000; 100; 10; and 1 μM/ml. The used solvent was DMSO.

| Compound | percent of protein synthesis dedicated to collagen synthesis ([1]; 1, 10, 100 μg/ml, harvested day 4 and day 7, vs control cells, p<0.05 ANOVA) | total collagen synthesis per flask ([1]; treated as in example 6, FIG. 9 (2a)) | overall protein synthesis per flask ([1]; treated as in example 6, FIG. 9 (2b)) | state of DTH test area [2] | inhibition of MNC proliferation with SEB as stimulus [3] | proliferation of MNC as response to different stimulants [3] | IC50 ([3]; Homo sapiens, PHA at 1 μg/ml, printed 'at the concentration of 5 μg/ml', read-out: IC50, inhibition of MNC proliferation in response to PHA) [µg/mL] | decrease of inflammation vs control ear, pre-treatment ([4]; single dose 1 hour before TPA/pyr) [%] | lower inflammation vs control, post treatment ([4]; two hours after induction, maximal effect after 11 hours) [%] | inhibition of inflammation vs control ear, concurrent treatment ([4]; with TPA/pyr induction, at 6 hours) | structure after storage [5] | inhibition at 1000 µM [6] [%] |
| --- | --- | --- | --- | --- | --- | --- | --- | --- | --- | --- | --- | --- |
| CCCCCCCC(CC(=O)O)OC(=O)CC(CCCCCCC)OC1OC(C)C(O)C(O)C1OC1OC(C)C(O)C(O)C1O (stereo not shown) [BAC-3] | significantly reduced | decreases synthesis of collagen | increase in overall synthesis | almost healed with only a slight erythema present | almost no inhibition | inhibited proliferation | 35 (≈ 53.8 µM) | 15 | 32 | about 32% | did not change its structure | 81 |
| C=C1/C(=C\C=C2/CCC[C@]3(C)[C@@H]([C@H](C)/C=C/[C@@H](O)C4CC4)CC[C@@H]23)C[C@@H](O)C[C@@H]1O [calcipotriene, reference compound] |  |  |  | almost healed with only a slight erythema present |  |  |  |  |  |  |  |  |
